Test results published in patent US20110178134A1, “Novel phenyl-substituted imidazolidines, process for preparation thereof, medicaments comprising said compounds and use thereof” (SANOFI-AVENTIS, priority 2008, published 2011).
Where two headings read alike, the source gives them in different places.

Tests used:
[1] = target: human cannabinoid receptor 1 (hCB1R) (Homo sapiens, UniProt P21554); experiment: Binding to human cannabinoid receptor 1 (hCB1R), [3H]-SR141716A displacement
Protocol: Binding to Human Cannabinoid Receptor 1 (hCB1R):
Test compounds: The compounds (3 μl, 10 mM, 100% DMSO), pipetted into 96-well PP microtiter plates, were diluted with 27 μl of 100% DMSO (dimethyl sulfoxide). Proceeding from this solution, further 3-fold dilution steps were undertaken by transferring […] in each case to a new PP microtiter plate and adding a further 20 μl of 100% DMSO. In each case 6 μl of these solutions were transferred into new 96-well PP microtiter plates and made up with 144 μl of assay buffer. The end concentrations ranged from 10 μM to 0.005 μM.
Negative control: AM 251, dissolved in assay buffer with 1% DMSO, was added to the dilution series in the microtiter plates as a control. The end concentration was 1 μM.
Blank control: assay buffer with 1% DMSO was added to the dilution series of the microtiter plates as a blank control.
Summary of the Assay Parameters:
High control: ^3H binding without addition of the compound
Low control: ^3H binding in the presence of 1 μM AM 251
The values were calculated using the corrected raw data.
The values reported were obtained as average values of a double determination. The IC50 values were calculated from the measurements with the program Xlfit, formula 205. Ki values were obtained from the IC50 and Kd values utilizing the Cheng-Prusoff equation: […]
Literature: Cheng, Y.-C., and Prusoff, W. H. (1973) Biochem. Pharmacol 22, 3099-3108

[2] = target: T1, human androgen receptor (hAR) (Homo sapiens, UniProt P10275, T878A); experiment: Binding assay with human androgen receptor, [3H]methyltrienolone, LNCaP cytosol; conditions: for inhibition at 10 µM / inhibition at 1 µM: inhibition of [3H]methyltrienolone binding; for inhibition at 10 µM: compound 10 μM; for inhibition at 1 µM: compound 1 μM
T1 construct: for the preparation of cytosolic receptor protein, the androgen-sensitive human prostate adenocarcinoma cell line LNCaP was used; endogenous in cells; host or cells: LNCaP (human prostate adenocarcinoma) cell cytosol fraction
T1 sequence (P10275 1-920 T878A): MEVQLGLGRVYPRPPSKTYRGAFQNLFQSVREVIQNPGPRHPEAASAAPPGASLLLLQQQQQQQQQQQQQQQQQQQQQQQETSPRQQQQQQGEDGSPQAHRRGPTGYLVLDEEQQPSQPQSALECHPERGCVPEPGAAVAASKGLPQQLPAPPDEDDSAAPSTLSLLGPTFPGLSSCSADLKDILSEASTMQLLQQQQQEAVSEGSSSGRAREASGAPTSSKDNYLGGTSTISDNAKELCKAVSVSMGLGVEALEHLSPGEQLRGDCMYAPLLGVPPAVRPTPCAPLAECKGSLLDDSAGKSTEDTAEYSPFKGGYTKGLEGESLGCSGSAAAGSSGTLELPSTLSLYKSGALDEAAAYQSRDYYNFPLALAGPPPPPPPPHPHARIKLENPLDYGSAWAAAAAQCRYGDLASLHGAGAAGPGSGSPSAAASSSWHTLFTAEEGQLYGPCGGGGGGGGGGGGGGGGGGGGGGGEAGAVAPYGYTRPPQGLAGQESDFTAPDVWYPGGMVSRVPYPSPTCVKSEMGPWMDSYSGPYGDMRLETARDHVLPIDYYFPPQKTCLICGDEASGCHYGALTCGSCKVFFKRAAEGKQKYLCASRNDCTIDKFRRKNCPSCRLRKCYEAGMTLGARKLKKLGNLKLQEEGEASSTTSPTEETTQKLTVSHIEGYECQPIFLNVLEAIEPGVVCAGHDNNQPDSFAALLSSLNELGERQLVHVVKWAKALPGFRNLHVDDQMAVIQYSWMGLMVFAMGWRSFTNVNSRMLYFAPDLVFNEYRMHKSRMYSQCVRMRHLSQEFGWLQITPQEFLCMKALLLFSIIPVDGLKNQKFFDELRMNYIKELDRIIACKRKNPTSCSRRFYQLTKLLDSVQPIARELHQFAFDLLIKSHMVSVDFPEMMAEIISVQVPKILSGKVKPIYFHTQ
Protocol: Binding Assay with Human Androgen Receptor:
The binding assays on the androgen receptor were conducted according to the method of D. T. Zava et al. (1979) (“Androgen Receptor Assay with [^3H]Methyltrienolone (R1881) in the Presence of Progesterone Receptor”, Endocrinology, 104, 1007-1012). The radioactive ligand used for the binding measurement was [^3H]methyltrienolone and the reference substance was the same compound in unmarked (=nonradioactive) form. To determine the unspecific proportion of binding, 1 μM mibolerone was used. In a departure from the method cited, for the preparation of cytosolic receptor protein, the androgen-sensitive human prostate adenocarcinoma cell line LNCaP was used. For the analysis, aliquots of a cell cytosol fraction (proceeding from 10^6 cells per analysis point) were incubated, in a buffer in the presence or absence of test substance, with 0.5 nM [^3H]methyltrienolone at 4° C. for 24 hours (25 mM HEPES/Tris, 1 mM EDTA, 10 mM Na2MoO4, 2 mM DTT, 10% glycerol; pH 7.4). The samples were then mixed with 400 μl each of an activated carbon suspension and the mixtures were centrifuged (10 minutes, 8000×g). Supernatants were withdrawn and mixed with 5 ml each of scintillation cocktail, and the radioactivity of the samples was measured in a scintillation counter. Specific ligand binding to the receptors was calculated as the difference between total binding and the unspecific binding in the presence of an excess of nonmarked ligand. End results were represented as percent specific binding compared to the binding of control substance.
The strength of the binding to the human androgen receptor is expressed as percent inhibition of the binding of [^3H]methyltrienolone to the human androgen receptor. The concentration of the compounds examined is 1 μM or 10 μM. The greater the numerical value of “percent inhibition at 1 or 10 μM”, the stronger is the binding of the test substance to the human androgen receptor. Alternatively, the Ki value is reported; the greater this value compared to the Ki value based on the binding to the hCB1R, the lower is the binding to the hAR.

[3] = CHO-K1/cannabinoid CB1 protein, 0.5 nM [3H]-SR141716A, Cheng-Prusoff, read-out: hCB1R, binding Ki

Chain of human cannabinoid receptor 1 (hCB1R) (P21554 whole entry): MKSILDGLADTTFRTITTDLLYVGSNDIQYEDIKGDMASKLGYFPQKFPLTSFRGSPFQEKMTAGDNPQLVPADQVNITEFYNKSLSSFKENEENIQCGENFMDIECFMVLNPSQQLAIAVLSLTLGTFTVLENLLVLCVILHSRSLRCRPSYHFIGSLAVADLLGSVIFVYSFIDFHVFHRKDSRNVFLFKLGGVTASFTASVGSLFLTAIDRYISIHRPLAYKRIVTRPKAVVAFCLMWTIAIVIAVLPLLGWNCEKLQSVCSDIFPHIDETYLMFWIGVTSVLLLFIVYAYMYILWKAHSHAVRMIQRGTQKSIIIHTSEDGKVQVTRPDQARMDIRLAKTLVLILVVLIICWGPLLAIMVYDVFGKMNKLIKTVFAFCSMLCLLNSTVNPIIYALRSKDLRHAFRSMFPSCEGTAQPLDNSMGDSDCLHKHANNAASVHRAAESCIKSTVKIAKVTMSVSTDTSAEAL

| SMILES | Ki [1] [nM] | Ki [1, 3] [nM] | inhibition at 1 µM [2] [%] | further results |
| --- | --- | --- | --- | --- |
| CC1(C)C(=O)N(c2ccc(C#N)c(C(F)(F)F)c2)C(=O)N1Cc1ccc(C(F)(F)F)cc1 [4-[4,4-dimethyl-2,5-dioxo-3-(4-trifluoromethylbenzyl)-imidazolidin-1-yl]-2-trifluoromethylbenzonitrile, reference compound] | 76 |  |  | Ki ([2]; read-out: Ki value based on binding to the human androgen receptor): 96 nM |
| CC1(C)C(=O)N(c2ccc(C#N)c(C(F)(F)F)c2)C(=O)N1Cc1cc(C(F)(F)F)cc(C(F)(F)F)c1 [Example 1, 4-[3-(3,5-bis(trifluoromethyl)benzyl)-4,4-dimethyl-2,5-dioxoimidazolidin-1-yl]-2-trifluoromethylbenzonitrile] | 4 |  |  | inhibition at 10 µM [2]: 26% |
| CC1(C)C(=O)N(c2ccc(C#N)c(C(F)(F)F)c2)C(=O)N1Cc1ccc(OC(F)(F)F)cc1 [Example 2, 4-[4,4-dimethyl-2,5-dioxo-3-(4-trifluoromethoxybenzyl)imidazolidin-1-yl]-2-trifluoromethylbenzonitrile] |  | 200 | 20 |  |
| CC1(C)C(=O)N(c2ccc(C#N)c(C(F)(F)F)c2)C(=O)N1Cc1cccc(C(F)(F)F)c1 [Example 3, 4-[4,4-dimethyl-2,5-dioxo-3-(3-trifluoromethylbenzyl)imidazolidin-1-yl]-2-trifluoromethylbenzonitrile] |  | 127 | 54 |  |
| CC1(C)C(=O)N(c2ccc(C#N)c(C(F)(F)F)c2)C(=O)N1Cc1ccc(Cl)nc1 [Example 5, 4-[3-(6-chloropyridin-3-ylmethyl)-4,4-dimethyl-2,5-dioxoimidazolidin-1-yl]-2-trifluoromethylbenzonitrile] | 25 |  | 86 |  |
| CC1(C)C(=O)N(c2ccc(C#N)c(C(F)(F)F)c2)C(=O)N1Cc1ccc(C(F)(F)F)nc1 [Example 6, 4-[4,4-dimethyl-2,5-dioxo-3-(6-trifluoromethylpyridin-3-ylmethyl)-imidazolidin-1-yl]-2-trifluoromethylbenzonitrile] | 11 |  | 84 |  |
| CC1(C)C(=O)N(c2ccc(F)c(C(F)(F)F)c2)C(=O)N1Cc1ccc(C(F)(F)F)nc1 [Example 7, 3-(4-fluoro-3-trifluoromethylphenyl)-5,5-dimethyl-1-(6-trifluoromethyl-pyridin-3-ylmethyl)imidazolidine-2,4-dione] |  | 205 | 47 |  |
| CC1(C)C(=O)N(c2ccc(Cl)c(C(F)(F)F)c2)C(=O)N1Cc1ccc(C(F)(F)F)nc1 [Example 8, 3-(4-chloro-3-trifluoromethylphenyl)-5,5-dimethyl-1-(6-trifluoromethyl-pyridin-3-ylmethyl)imidazolidine-2,4-dione] |  | 227 | 53 |  |
| CC1(C)C(=O)N(c2ccc(F)c(C(F)(F)F)c2)C(=O)N1Cc1cc(C(F)(F)F)cc(C(F)(F)F)c1 [Example 9, 1-(3,5-bis(trifluoromethyl)benzyl)-3-(4-fluoro-3-trifluoromethylphenyl)-5,5-dimethylimidazolidine-2,4-dione] |  | 295 |  | inhibition at 10 µM [2]: 3% |
| CC1(C)C(=O)N(c2ccc(Cl)c(C(F)(F)F)c2)C(=O)N1Cc1cc(C(F)(F)F)cc(C(F)(F)F)c1 [Example 10, 1-(3,5-bis(trifluoromethyl)benzyl)-3-(4-chloro-3-trifluoromethylphenyl)-5,5-dimethylimidazolidine-2,4-dione] | 81 |  | 3 |  |
| CC1(C)C(=O)N(c2ccc(C#N)c(C(F)(F)F)c2)C(=O)N1Cc1cccc(S(F)(F)(F)(F)F)c1 [Example 11, 4-[4,4-dimethyl-2,5-dioxo-3-(3-pentafluorosulfanylbenzyl)imidazolidin-1-yl]-2-trifluoromethylbenzonitrile] | 17 |  | 39 |  |
| CC1(C)C(=O)N(c2ccc(C#N)c(C(F)(F)F)c2)C(=O)N1Cc1ccc(OCc2ccccc2)c(OCc2ccccc2)c1 [Example 33, 4-[3-(3,4-bis(benzyloxy)benzyl)-4,4-dimethyl-2,5-dioxoimidazolidin-1-yl]-2-trifluoromethylbenzonitrile] | 26 |  |  | Ki ([2]; reported instead of % inhibition in table 5, read-out: hAR, Ki): > 1000 nM |
| CC1(C)C(=O)N(c2ccc(C#N)c(C(F)(F)F)c2)C(=O)N1Cc1ccccc1Oc1ccccc1 [Example 34, 4-[4,4-dimethyl-2,5-dioxo-3-(2-phenoxybenzyl)imidazolidin-1-yl]-2-trifluoromethylbenzonitrile] | 6 |  | 30 |  |
| CC1(C)C(=O)N(c2ccc(Cl)c(C(F)(F)F)c2)C(=O)N1Cc1ccc(OCc2ccccc2)c(OCc2ccccc2)c1 [Example 37] |  | 219 |  | inhibition at 10 µM [2]: 4% |
| CC1(C)C(=O)N(c2ccc(F)c(C(F)(F)F)c2)C(=O)N1Cc1ccccc1Oc1ccccc1 [Example 44, 3-(4-fluoro-3-trifluoromethylphenyl)-5,5-dimethyl-1-(2-phenoxybenzyl)imidazolidine-2,4-dione] |  | 100 |  | inhibition at 10 µM [2]: 15% |
| CC1(C)C(=O)N(c2ccc(F)c(C(F)(F)F)c2)C(=O)N1Cc1ccc(F)cc1NS(N)(=O)=O [Example 52, N-{5-fluoro-2-[3-(4-fluoro-3-trifluoromethylphenyl)-5,5-dimethyl-2,4-dioxoimidazolidin-1-ylmethyl]phenyl}sulfamide] | 41 |  | 52 |  |
